Columns and labels:
[1] = Rodent brain penetration study; type: in vivo, Male Wistar rats; conditions: male, Wistar, rat, oral; 3 mg/kg, p.o.; brain-plasma ratio; read-out: Single dose Rat Brain Penetration (Cb/Cp)
Protocol: WO2015044072A1 patent application discloses indole derivatives as M1 PAM compounds. […] This makes these compounds less ideal for the treatment of CNS disorders.
Rodent Brain Penetration Study
Male Wistar rats (260±40 grams) were used as experimental animals. Three animals were housed in each cage. Animals were given water and food ad libitum throughout the experiment and maintained on a 12 hours light/dark cycle.
Brain penetration was determined in discrete manner in rats. One day prior to dosing day, male Wistar rats were acclimatized and randomly grouped according to their weight. At each time point (0.5, 1 and 2 hours) n=3 animals were used.
The test compounds were suitably preformulated and administered orally at (free base equivalent) 3 mg/kg. Blood samples were removed via cardiac puncture by using isoflurane anesthesia. The animals were sacrificed to collect brain tissue. Plasma was separated and brain samples were homogenized and stored frozen at ˜20° C. until analysis. The concentrations of the test compounds in plasma and brain were determined using LC-MS/MS method.
The test compounds were quantified in plasma and brain homogenate by qualified LC-MS/MS method using suitable extraction technique. The test compounds were quantified in the calibration range of 1-500 ng/mL in plasma and brain homogenate. Study samples were analyzed using calibration samples in the batch and quality control samples spread across the batch.

[2] = Protein binding assay (HT dialysis), human matrices; type: in vitro ADME; conditions: Mean ± SEM
Protocol: (§1) Unbound fractions of new chemical entities in plasma, brain homogenate and liver microsomes were determined using high-throughput dialysis (HT dialysis). Briefly, dialysis membranes were soaked in deionized water for 20 minutes and then in deionized water with 30% ethanol for 15 minutes and finally in phosphate buffer until use. Membranes were rinsed in phosphate buffer before assembling. The membranes were layered between teflon bars of dialysis assembly. Stock solutions of test compounds were prepared at 10 mM in DMSO, diluted to 1 mM in acetonitrile and further diluted to 100 μM in mixture of water and acetonitrile (1:1 v/v). Human plasma (pool of 3) was prepared from human blood (3 donors) by centrifuging at 4000 rpm for 10 min at 4° C. Rat and dog blood were obtained on the day of the study and centrifuged to obtain plasma. Rat brains were isolated, cleaned and homogenized with 2 volumes of buffer (3 fold dilution). Liver microsomes were prepared at 0.5 mg/mL in phosphate buffer (100 mM, pH 7.4). The dialysate chambers were loaded with 150 μL of 100 mM phosphate buffer (pH 7.4) in triplicates. The matrix chambers were loaded with 150 μL of the plasma or brain homogenate or microsomal suspension spiked with test compounds at a final concentration of 1 μM. 50 μL of the sample was removed from both the chambers at 0 h. The plate was sealed and incubated at 37° C. for 6 h at 100 rpm. After 6 h, 50 μL of the sample was removed from both the chambers. Equal volumes of buffer or human plasma/microsomal suspension were added to the plasma/microsomal and buffer samples respectively to create identical sample matrices for analysis. The samples were precipitated with 150 μL of acetonitrile containing fluoxetine as an internal standard. All the samples were centrifuged at 10000 rpm for 10 minutes at 4° C.

[3] = Protein binding assay (HT dialysis), rat matrices; type: in vitro ADME; conditions: Mean ± SEM
Protocol: as §1

[4] = Rodent pharmacokinetic study; type: in vivo, Male Wistar rats; conditions: male, Wistar; for AUC(0-t) / half-life / Cmax: rat plasma; for clearance / bioavailability: plasma, rat; for bioavailability: oral 3 mg/kg vs i.v. 1 mg/kg, read-out: % F (Bioavailability)
Protocol: Rodent Pharmacokinetic Study
Male Wistar rats (260±50 grams) were used as experimental animals. Animals were housed individually in polypropylene cage. Two days prior to study, male Wistar rats were anesthetized with isoflurane for surgical placement of jugular vein catheter. Rats were randomly divided for oral (3 mg/kg) and intravenous (i.v.) (1 mg/kg) dosing (n=3/group) and fasted overnight before oral dosing (p.o.). However, rats allocated to intravenous dosing food and water was provided ad libitum.
At pre-determined point, blood was collected through jugular vein and replenished with an equivalent volume of normal saline. Collected blood was transferred into a labeled eppendorf tube containing 10 μL of heparin as an anticoagulant. Typically blood samples were collected at following time points: 0.08, 0.25, 0.5, 1, 2, 4, 6, 8, and 24 hours post dose. Blood was centrifuged at 4000 rpm for 10 minutes. Plasma was separated and stored frozen at −80° C. until analysis. The concentrations of the test compounds were quantified in plasma by qualified LC-MS/MS method using suitable extraction technique. The test compounds were quantified in the calibration range around 1-1000 ng/mL in plasma. Study samples were analyzed using calibration samples in the batch and quality control samples spread across the batch.
Pharmacokinetic parameters Cmax, AUCt, T1/2, Clearance, and Bioavailability (% F) were calculated by non-compartmental model using standard non-compartmental model by using Phoenix WinNonlin 6.0.2 or 6.0.3 version Software package and the results are tabulated in table 3.

Male Wistar rats = test: Object recognition task model; type: in vivo; conditions: p.o.; for Exploration time Familiar object / Exploration time Novel object: mean ± S.E.M, choice trial 24 hours after T1
Protocol: Object Recognition Task Model
The cognition enhancing properties of compounds of this invention were estimated by using this model.
Male Wistar rats (8-10 weeks old) were used as experimental animals. Four animals were housed in each cage. Animals were kept on 20% food deprivation from a day prior to experimentation. Water was provided ad libitum throughout the experiment. Animals were maintained on a 12 hours light/dark cycle in temperature and humidity controlled room. The experiment was carried out in an open field made up of acrylic. Rats were habituated to individual arenas (open field) for 1 hour in the absence of any objects on day 1.
One group of 12 rats received vehicle and another set of animals received compound of the formula (I), before the familiar (T1) and choice (T2) trials. During the familiarization phase, (T1), the rats were placed individually in the arena for 3 minutes, in which two identical objects (a1 and a2) were positioned 10 cm from the wall. 24 hours after T1, trial for long-term memory test was performed. The same rats were placed in the same arena as they were placed in T1 trial. During the choice phase (T2) rats were allowed to explore the arena for 3 minutes in presence of a copy of familiar object (a3) and one novel object (b). During the T1 and T2 trial, explorations of each object (defined as sniffing, licking, chewing or having moving vibrissae whilst directing the nose towards the object at a distance of less than 1 cm) were recorded using stopwatch. • T1 is the total time spent exploring the familiar objects (a1+a2). • T2 is the total time spent exploring the familiar object and novel object (a3+b). • Discriminative index=Time spent with novel object/(time spent with novel and familiar object).
The object recognition test was performed as described by Behavioural Brain Research, 1988, 31, 47-59 and the results are provided in table 5.

[5] = pH 7.4, Human liver microsomes 0.5 mg/mL, n = 3, read-out: Fu Microsomes
[6] = pH 7.4, Human plasma, 37° C., n = 3, read-out: Fu Plasma
[7] = pH 7.4, Rat brain homogenate, 37° C., n = 3, read-out: Fu Brain
[8] = pH 7.4, Rat liver microsomes 0.5 mg/mL, n = 3, read-out: Fu Microsomes
[9] = pH 7.4, Rat plasma, 37° C., n = 3, read-out: Fu Plasma

| SMILES | Kp [1] | fraction unbound at 6 h, 1 μM [2, 5] | fraction unbound at 6 h, 1 μM [2, 6] | fraction unbound at 6 h, 1 μM [3, 7] | fraction unbound at 6 h, 1 μM [3, 8] | fraction unbound at 6 h, 1 μM [3, 9] | AUC(0-t) ([4]; iv, 1 mg/kg) | half-life ([4]; iv, 1 mg/kg) | clearance ([4]; iv, 1 mg/kg) | bioavailability [4] | AUC(0-t) ([4]; oral, 3 mg/kg) | Cmax ([4]; oral, 3 mg/kg) | half-life ([4]; oral, 3 mg/kg) | Inference (Male Wistar rats; 0.3 mg/kg) | Exploration time Familiar object (Male Wistar rats; 0.3 mg/kg) | Exploration time Novel object (Male Wistar rats; 0.3 mg/kg) | Inference (Male Wistar rats; 1 mg/kg) | Exploration time Familiar object (Male Wistar rats; 1 mg/kg) | Exploration time Novel object (Male Wistar rats; 1 mg/kg) | other results |
| --- | --- | --- | --- | --- | --- | --- | --- | --- | --- | --- | --- | --- | --- | --- | --- | --- | --- | --- | --- | --- |
| Cn1cc(Cn2cc(C(=O)N[C@H]3CCCC[C@@H]3O)c3c(F)ccc(F)c32)cn1 [Example 5, N-[(1S,2S)-2-Hydroxycyclohexyl]-1-(1-methyl-1H-pyrazol-4-ylmethyl)-4,7-difluoro-1H-indole-3-carboxamide] | 0.5 ± 0.04 | 0.899 ± 0.03 | 0.077 ± 0.01 | 0.128 ± 0.01 | 0.779 ± 0.01 | 0.21 ± 0.01 | 2920 ± 1430 ng·h/mL | 4 ± 1.7 h | 7.1 ± 4.3 mL/min/kg | 90 ± 33% | 7870 ± 2860 ng·h/mL | 2680 ± 664 ng/mL | 3.3 ± 0.3 h | Active | 11.00 ± 0.81 s | 19.64 ± 1.74 s |  |  |  |  |
| Cn1cc(Cn2cc(C(=O)N[C@H]3CCCC[C@@H]3O)c3c(F)cccc32)cn1 [Example 1, N-[(1S,2S)-2-Hydroxycyclohexyl]-1-(1-methyl-1H-pyrazol-4-ylmethyl)-4-fluoro-1H-indole-3-carboxamide] | 0.3 ± 0.05 |  | 0.197 ± 0.01 | 0.166 ± 0.01 | 0.836 ± 0.04 | 0.267 ± 0.03 | 2250 ± 190 ng·h/mL | 3 ± 0.3 h | 7.3 ± 0.4 mL/min/kg | 76 ± 7% | 5160 ± 464 ng·h/mL | 1190 ± 81 ng/mL | 2.9 ± 0.2 h | Active | 11.31 ± 1.07 s | 28.92 ± 3.54 s |  |  |  |  |
| Cl.O=C(N[C@H]1CCNC[C@H]1F)c1cn(Cc2ccnc(F)c2)c2c(F)ccc(F)c12 (single isomer, unassigned; isomer-i) [Example 22, Cis-N-(3-Fluoropiperidin-4-yl)-1-(2-fluoropyridin-4-ylmethyl)-4,7-difluoro-1H-indole-3-carboxamide hydrochloride (Isomer-I)] | 0.46 ± 0.11 | 0.788 ± 0.031 | 0.309 ± 0.008 | 0.067 ± 0.002 | 0.902 ± 0.006 | 0.315 ± 0.03 | 908 ± 198 ng·h/mL | 7.6 ± 1.7 h | 17.1 ± 3.3 mL/min/kg | 60 ± 5% | 1650 ± 147 ng·h/mL | 207 ± 76 ng/mL | 4.8 ± 2.8 h |  |  |  |  |  |  | Inference (Male Wistar rats; 3 mg/kg): Active; Exploration time Familiar object (Male Wistar rats; 3 mg/kg): 8.21 ± 0.70 s; Exploration time Novel object (Male Wistar rats; 3 mg/kg): 15.72 ± 2.25 s |
| O=C(N[C@H]1CCCC[C@@H]1O)c1cn(Cc2ccnc(Cl)c2)c2cccc(F)c12 [Example 2, N-[(1S,2S)-2-Hydroxycyclohexyl]-1-(2-chloropyridin-4-ylmethyl)-4-fluoro-1H-indole-3-carboxamide] | 0.95 ± 0.17 | 0.459 ± 0.046 | 0.04 ± 0.002 | 0.015 ± 0.001 | 0.679 ± 0.081 | 0.068 ± 0.002 | 1150 ± 245 ng·h/mL | 1.9 ± 0.4 h | 16.1 ± 2.8 mL/min/kg | 63 ± 17% | 2160 ± 599 ng·h/mL | 632 ± 167 ng/mL | 1.9 ± 0.2 h |  |  |  | Active | 9.06 ± 1.75 s | 15.09 ± 2.19 s |  |
| O=C(N[C@H]1CCCC[C@@H]1O)c1cn(Cc2ccnc(F)c2)c2cccc(F)c12 [Example 7, N-[(1S,2S)-2-Hydroxycyclohexyl]-1-(2-fluoropyridin-4-ylmethyl)-4-fluoro-1H-indole-3-carboxamide] | 0.61 ± 0.01 | 0.7 ± 0.03 | 0.1 ± 0.004 | 0.06 ± 0.004 | 0.8 ± 0.04 | 0.2 ± 0.02 | 1120 ± 119 ng·h/mL | 2 ± 0.4 h | 14.2 ± 2 mL/min/kg | 67 ± 14% | 2260 ± 471 ng·h/mL | 783 ± 254 ng/mL | 1.4 ± 0.2 h |  |  |  | Active | 9.16 ± 0.83 s | 19.56 ± 1.96 s |  |
| O=C(N[C@H]1CCCC[C@@H]1O)c1cn(Cc2ccnc(F)c2)c2c(F)ccc(F)c12 [Example 8, N-[(1S,2S)-2-Hydroxycyclohexyl]-1-(2-fluoropyridin-4-ylmethyl)-4,7-difluoro-1H-indole-3-carboxamide] | 1.1 ± 0.1 | 0.626 ± 0.037 | 0.079 ± 0.006 | 0.0348 ± 0.0001 | 0.606 ± 0.008 | 0.089 ± 0.01 | 1830 ± 562 ng·h/mL | 1.8 ± 0.3 h | 9 ± 3 mL/min/kg | 45 ± 15% | 2500 ± 842 ng·h/mL | 578 ± 170 ng/mL | 2.3 ± 1.8 h | Active | 7.59 ± 1.02 s | 14.36 ± 1.56 s |  |  |  |  |
